Test results from ChEMBL document CHEMBL1201862, “PubChem BioAssay data set” (2004).
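Test compounds were applied to cells in 96-well plates for 48 hours at 5 doses. Abbreviation: GI50, concentration required for 50% inhibition of growth.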 Calls of active or inactive are those of the source. Cut-off read from the data, not from the text of the source: active = GI50 up to about 1.1 µM and inactive = higher.

Key:
Experiment in all cases: NCI anticancer screen, dose series, 48 h
SK-MEL-2 = tested on: SK-MEL-2
SR = tested on: SR
OVCAR-8 = tested on: OVCAR-8
COLO 205 = tested on: COLO 205
SK-MEL-28 = tested on: SK-MEL-28
HCT-116 = tested on: HCT-116
NCI-H460 = tested on: NCI-H460
SW-620 = tested on: SW-620
SNB-19 = tested on: SNB-19
LOX IMVI = tested on: LOX IMVI
MDA-MB-435 = tested on: MDA-MB-435
SN12C = tested on: SN12C
T47D = tested on: T47D
MOLT-4 = tested on: MOLT-4
SNB-75 = tested on: SNB-75
MDA-N = tested on: MDA-N
HOP-92 = tested on: HOP-92
EKVX = tested on: EKVX
UO-31 = tested on: UO-31
NCI-H522 = tested on: NCI-H522

Measured: GI50

O=C(Nc1cccc2ccccc12)c1cc2ccccc2oc1=O
inactive: SK-MEL-2 40.6 µM | SR > 100 µM | OVCAR-8 39.4 µM | COLO 205 > 100 µM | SK-MEL-28 > 100 µM | HCT-116 36.8 µM | NCI-H460 > 100 µM | SW-620 > 100 µM | SNB-19 22 µM | LOX IMVI > 100 µM | MDA-MB-435 > 100 µM | SN12C > 100 µM | T47D > 100 µM | MOLT-4 > 100 µM | SNB-75 30.6 µM | MDA-N > 100 µM | HOP-92 > 100 µM

Fc1cccc(F)c1C1SCc2nc3cc4ccccc4cc3n21 (configuration not stated)
inactive: SK-MEL-2 > 100 µM | EKVX 54.6 µM | SR 17.5 µM | OVCAR-8 58.6 µM | COLO 205 31.2 µM | SK-MEL-28 49.7 µM | HCT-116 47 µM | SW-620 49 µM | LOX IMVI 32.9 µM | MDA-MB-435 49.9 µM | SN12C 34.1 µM | T47D 23 µM | MOLT-4 15.3 µM | SNB-75 20.7 µM | MDA-N 39 µM | HOP-92 16.3 µM

Cc1cc(C)c(C)c(-n2[nH]c(=O)n(C)c2=O)c1C
inactive: SK-MEL-2 > 100 µM | EKVX > 100 µM | SR > 100 µM | OVCAR-8 > 100 µM | COLO 205 > 100 µM | SK-MEL-28 > 100 µM | HCT-116 > 100 µM | NCI-H460 > 100 µM | SW-620 > 100 µM | SNB-19 > 100 µM | LOX IMVI 99.3 µM | MDA-MB-435 > 100 µM | SN12C > 100 µM | T47D > 100 µM | MOLT-4 > 100 µM | MDA-N > 100 µM | UO-31 > 100 µM | HOP-92 > 100 µM

COC(=O)C(CNC(=O)/C=C/c1ccc(OC(C)=O)c(OC(C)=O)c1)NC(=O)/C=C/c1ccc(OC(C)=O)c(OC(C)=O)c1 (configuration not stated)
inactive: SK-MEL-2 > 100 µM | EKVX > 100 µM | SR 92.9 µM | OVCAR-8 > 100 µM | COLO 205 > 100 µM | SK-MEL-28 > 100 µM | HCT-116 > 100 µM | NCI-H460 > 100 µM | SW-620 > 100 µM | SNB-19 93.3 µM | LOX IMVI > 100 µM | MDA-MB-435 > 100 µM | SN12C > 100 µM | NCI-H522 32.1 µM | T47D 77.3 µM | MOLT-4 30 µM | MDA-N > 100 µM | UO-31 > 100 µM | HOP-92 > 100 µM

CCCCCCCCCCCCCCCCOCC(COP(=O)([O-])OCC[n+]1ccc(N(C)C)cc1)OCC (configuration not stated)
inactive: SK-MEL-2 13.4 µM | SR 4.95 µM | OVCAR-8 19.5 µM | COLO 205 13.6 µM | SK-MEL-28 17.6 µM | HCT-116 11.3 µM | NCI-H460 12.1 µM | SW-620 18.3 µM | SNB-19 2.8 µM | LOX IMVI 12.6 µM | MDA-MB-435 17.7 µM | SN12C 19.7 µM | NCI-H522 12.8 µM | T47D 18 µM | MOLT-4 4.52 µM | SNB-75 2.97 µM | MDA-N 17 µM | UO-31 15.5 µM | HOP-92 17 µM

C[C@]12CC[C@H]3[C@@H](CCC4=CC(=O)CC[C@@]43C)[C@@H]1CC[C@@H]2C(=O)Nc1ccc([N+](=O)[O-])c(C(F)(F)F)c1
inactive: SK-MEL-2 17.5 µM | EKVX 13.4 µM | SR 23.7 µM | OVCAR-8 26.4 µM | COLO 205 18.2 µM | SK-MEL-28 20.7 µM | HCT-116 17.5 µM | NCI-H460 17.3 µM | SW-620 20.9 µM | SNB-19 18.5 µM | LOX IMVI 15.8 µM | MDA-MB-435 18 µM | SN12C 23.4 µM | NCI-H522 17.2 µM | T47D 15.6 µM | MOLT-4 24.2 µM | MDA-N > 10 µM | UO-31 16.6 µM | HOP-92 39.8 µM

C=CCOC(=O)N1c2ccc(O)cc2[C@@]23O[C@@]24[C@@H]1C#C/C=C\C#C[C@]3(O)C(OC)(OC)C[C@@H]4C
inactive: SK-MEL-2 24.2 µM | EKVX 53.2 µM | SR 24.2 µM | OVCAR-8 32.5 µM | COLO 205 19.1 µM | SK-MEL-28 45.1 µM | HCT-116 35.2 µM | NCI-H460 24.4 µM | SW-620 52.2 µM | SNB-19 58.2 µM | MDA-MB-435 15.1 µM | SN12C 23.8 µM | NCI-H522 31.3 µM | T47D > 100 µM | MOLT-4 16.3 µM | SNB-75 12.1 µM | MDA-N 28.8 µM | UO-31 37.2 µM | HOP-92 16.4 µM
